Data published in ChEMBL document CHEMBL1671652, “Efficacy of piperacillin combined with the Penem beta-lactamase inhibitor BLI-489 in murine models of systemic infection” (2009).
≈ marks a conversion by molar mass, not a printed value.

What was measured:
Escherichia coli [1] = assay: Antimicrobial activity against TEM-10 beta-lactamase producing Escherichia coli GC 2022 infected in CD-1 mouse treated 30 mins postinfection in presence of beta-lactamase inhibitor Tazobactam; type: functional; conditions: GC 2022, 0.5 h
Pseudomonas aeruginosa [2] = assay: Antimicrobial activity against AmpC beta-lactamase producing Pseudomonas aeruginosa GC 1764 infected in CD-1 mouse treated 30 and 150 mins postinfection in presence of 8:1 ratio of compound to beta-lactamase inhibitor BLI-489; type: functional
Salmonella typhimurium [3] = assay: Antimicrobial activity against CTX-M-5 beta-lactamase producing Salmonella enterica serovar Typhimurium GC 4195 infected in CD-1 mouse treated 30 and 150 mins postinfection in presence of beta-lactamase inhibitor Tazobactam; type: functional, Salmonella enterica subsp. enterica serovar Typhimurium
Enterobacter cloacae [4] = assay: Antimicrobial activity against AmpC beta-lactamase producing Enterobacter cloacae GC 4142 by broth microdilution method; type: functional
Escherichia coli [5] = assay: Antimicrobial activity against TEM-1 beta-lactamase producing Escherichia coli GC 6265 infected in CD-1 mouse treated 30 mins postinfection in presence of 14:1 ratio of compound to beta-lactamase inhibitor BLI-489; type: functional; conditions: GC 6265, 0.5 h
Escherichia coli [6] = assay: Antimicrobial activity against TEM-10 beta-lactamase producing Escherichia coli GC 2022 by broth microdilution method in presence of beta-lactamase inhibitor Tazobactam; type: functional
Salmonella typhimurium [7] = assay: Antimicrobial activity against CTX-M-5 beta-lactamase producing Salmonella enterica serovar Typhimurium GC 4195 infected in CD-1 mouse treated 30 and 150 mins postinfection; type: functional, Salmonella enterica subsp. enterica serovar Typhimurium
Escherichia coli [8] = assay: Antimicrobial activity against OXA-1 beta-lactamase producing Escherichia coli GAR 5946 infected in CD-1 mouse treated 30 and 150 mins postinfection in presence of 8:1 ratio of compound to beta-lactamase inhibitor BLI-489; type: functional
Enterobacter cloacae [9] = assay: Antimicrobial activity against AmpC beta-lactamase producing Enterobacter cloacae GC 4142 infected in CD-1 mouse treated 30 and 150 min postinfection in presence of 4:1 ratio of compound to beta-lactamase inhibitor BLI-489; type: functional
Escherichia coli [10] = assay: Antimicrobial activity against OXA-1 beta-lactamase producing Escherichia coli GAR 5946 infected in CD-1 mouse treated 30 and 150 mins postinfection in presence of beta-lactamase inhibitor Tazobactam; type: functional
Klebsiella pneumoniae [11] = assay: Antimicrobial activity against SHV-11beta-lactamase producing Klebsiella pneumoniae GAR 7693 infected in CD-1 mouse treated 30 and 150 mins postinfection in presence of 8:1 ratio of compound to beta-lactamase inhibitor BLI-489; type: functional
Escherichia coli [12] = assay: Antimicrobial activity against TEM-10 beta-lactamase producing Escherichia coli GC 2022 by broth microdilution method in presence of 8:1 ratio of compound to beta-lactamase inhibitor BLI-489; type: functional
Pseudomonas aeruginosa [13] = assay: Antimicrobial activity against AmpC beta-lactamase producing Pseudomonas aeruginosa GC 1764 by broth microdilution method; type: functional
Escherichia coli [14] = assay: Antimicrobial activity against TEM-10 beta-lactamase producing Escherichia coli GC 2022 by broth microdilution method; type: functional
Escherichia coli [15] = assay: Antimicrobial activity against OXA-1 beta-lactamase producing Escherichia coli GAR 5946 infected in CD-1 mouse treated 30 and 150 mins postinfection; type: functional
Pseudomonas aeruginosa [16] = assay: Antimicrobial activity against AmpC beta-lactamase producing Pseudomonas aeruginosa GC 1764 infected in CD-1 mouse treated 30 and 150 mins postinfection; type: functional
Klebsiella pneumoniae [17] = assay: Antimicrobial activity against SHV-1and SHV-5 beta-lactamase producing Klebsiella pneumoniae GAR 7978 by broth microdilution method in presence of beta-lactamase inhibitor Tazobactam; type: functional
Pseudomonas aeruginosa [18] = assay: Antimicrobial activity against AmpC beta-lactamase producing Pseudomonas aeruginosa GC 1764 infected in CD-1 mouse treated 30 and 150 mins postinfection in presence of beta-lactamase inhibitor Tazobactam; type: functional
Escherichia coli [19] = assay: Antimicrobial activity against TEM-1 beta-lactamase producing Escherichia coli GC 6265 infected in CD-1 mouse treated 30 mins postinfection in presence of 2:1 ratio of compound to beta-lactamase inhibitor BLI-489; type: functional; conditions: GC 6265, 0.5 h
Salmonella typhimurium [20] = assay: Antimicrobial activity against CTX-M-5 beta-lactamase producing Salmonella enterica serovar Typhimurium GC 4195 by broth microdilution method in presence of 8:1 ratio of compound to beta-lactamase inhibitor BLI-489; type: functional, Salmonella enterica subsp. enterica serovar Typhimurium
Staphylococcus aureus [21] = assay: Antimicrobial activity against penicillinase producing Staphylococcus aureus GC 6468 infected in CD-1 mouse treated 30 and 150 mins postinfection; type: functional
Enterobacter cloacae [22] = assay: Antimicrobial activity against AmpC beta-lactamase producing Enterobacter cloacae GC 4142 infected in CD-1 mouse treated 30 and 150 min postinfection in presence of 12:1 ratio of compound to beta-lactamase inhibitor BLI-489; type: functional
Escherichia coli [23] = assay: Antimicrobial activity against TEM-1 beta-lactamase producing Escherichia coli GC 6265 infected in CD-1 mouse treated 30 mins postinfection in presence of beta-lactamase inhibitor Tazobactam; type: functional; conditions: GC 6265, 0.5 h
Klebsiella pneumoniae [24] = assay: Antimicrobial activity against SHV-11 beta-lactamase producing Klebsiella pneumoniae GAR 7693 infected in CD-1 mouse treated 30 and 150 mins postinfection; type: functional
Escherichia coli [25] = assay: Antimicrobial activity against TEM-1 beta-lactamase producing Escherichia coli GC 6265 infected in CD-1 mouse treated 30 mins postinfection in presence of 10:1 ratio of compound to beta-lactamase inhibitor BLI-489; type: functional; conditions: GC 6265, 0.5 h
Salmonella typhimurium [26] = assay: Antimicrobial activity against CTX-M-5 beta-lactamase producing Salmonella enterica serovar Typhimurium GC 4195 infected in CD-1 mouse treated 30 and 150 mins postinfection in presence of 8:1 ratio of compound to beta-lactamase inhibitor BLI-489; type: functional, Salmonella enterica subsp. enterica serovar Typhimurium
Klebsiella pneumoniae [27] = assay: Antimicrobial activity against SHV-11 beta-lactamase producing Klebsiella pneumoniae GAR 7693 by broth microdilution method; type: functional
Pseudomonas aeruginosa [28] = assay: Antimicrobial activity against AmpC beta-lactamase producing Pseudomonas aeruginosa GC 1764 by broth microdilution method in presence of beta-lactamase inhibitor Tazobactam; type: functional
Escherichia coli [29] = assay: Antimicrobial activity against OXA-1 beta-lactamase producing Escherichia coli GAR 5946 by broth microdilution method in presence of beta-lactamase inhibitor Tazobactam; type: functional
Escherichia coli [30] = assay: Antimicrobial activity against TEM-10 beta-lactamase producing Escherichia coli GC 2022 infected in CD-1 mouse treated 30 mins postinfection; type: functional; conditions: GC 2022, 0.5 h
Enterobacter cloacae [31] = assay: Antimicrobial activity against AmpC beta-lactamase producing Enterobacter cloacae GC 4142 infected in CD-1 mouse treated 30 and 150 min postinfection in presence of 6:1 ratio of compound to beta-lactamase inhibitor BLI-489; type: functional
Staphylococcus aureus [32] = assay: Antimicrobial activity against penicillinase producing Staphylococcus aureus GC 6468 by broth microdilution method in presence of 8:1 ratio of compound to beta-lactamase inhibitor BLI-489; type: functional
Enterobacter cloacae [33] = assay: Antimicrobial activity against AmpC beta-lactamase producing Enterobacter cloacae GC 4142 infected in CD-1 mouse treated 30 and 150 min postinfection in presence of 14:1 ratio of compound to beta-lactamase inhibitor BLI-489; type: functional
Klebsiella pneumoniae [34] = assay: Antimicrobial activity against SHV-1and SHV-5 beta-lactamase producing Klebsiella pneumoniae GAR 7978 infected in CD-1 mouse treated 30 and 150 mins postinfection; type: functional
Escherichia coli [35] = assay: Antimicrobial activity against ACT-1 beta-lactamase producing Escherichia coli GC 2814 infected in CD-1 mouse treated 30 and 150 mins postinfection in presence of 8:1 ratio of compound to beta-lactamase inhibitor BLI-489; type: functional

With `CCN1CCN(C(=O)N[C@@H](C(=O)N[C@@H]2C(=O)N3[C@@H]2SC(C)(C)[C@@H]3C(=O)O)c2ccccc2)C(=O)C1=O` [PIPERACILLIN] the ED50 (Escherichia coli [1]) was 25 mg/kg, the ED50 (Pseudomonas aeruginosa [2]) was 103 mg/kg and the ED50 (Salmonella typhimurium [3]) was 152 mg/kg. It also gave an MIC (Enterobacter cloacae [4]) of 8 µg/mL (≈ 15.5 µM), an ED50 (Escherichia coli [5]) of 16 mg/kg and an MIC (Escherichia coli [6]) of 2 µg/mL. It also gave an ED50 (Salmonella typhimurium [7]) of 1120 mg/kg, an ED50 (Escherichia coli [8]) of 86 mg/kg and an ED50 (Enterobacter cloacae [9]) of 30 mg/kg. For the same compound, the ED50 (Escherichia coli [10]) was 270 mg/kg, the ED50 (Klebsiella pneumoniae [11]) was 23 mg/kg and the MIC (Escherichia coli [12]) was greater than 64 µg/mL. It also gave an MIC (Pseudomonas aeruginosa [13]) greater than 64 µg/mL, an MIC (Escherichia coli [14]) of 1 µg/mL (≈ 1.93 µM) and an ED50 (Escherichia coli [15]) of 980 mg/kg. It also gave an ED50 (Pseudomonas aeruginosa [16]) of 980 mg/kg, an MIC (Klebsiella pneumoniae [17]) greater than 64 µg/mL and an ED50 (Pseudomonas aeruginosa [18]) of 246 mg/kg. For the same compound, the ED50 (Escherichia coli [19]) was 8.5 mg/kg, the MIC (Salmonella typhimurium [20]) was greater than 64 µg/mL and the ED50 (Staphylococcus aureus [21]) was 418 mg/kg. For the same compound, the ED50 (Enterobacter cloacae [22]) was 60 mg/kg, the ED50 (Escherichia coli [23]) was 11 mg/kg and the ED50 (Klebsiella pneumoniae [24]) was 193 mg/kg. For the same compound, the ED50 (Escherichia coli [25]) was 12 mg/kg, the ED50 (Salmonella typhimurium [26]) was 45 mg/kg and the MIC (Klebsiella pneumoniae [27]) was 2 µg/mL (≈ 3.86 µM). For the same compound, the MIC (Pseudomonas aeruginosa [28]) was 32 µg/mL, the MIC (Escherichia coli [29]) was 0.25 µg/mL and the ED50 (Escherichia coli [30]) was 301 mg/kg. It also gave an ED50 (Enterobacter cloacae [31]) of 30 mg/kg, an MIC (Staphylococcus aureus [32]) of 1 µg/mL and an ED50 (Enterobacter cloacae [33]) of 69 mg/kg. For the same compound, the ED50 (Klebsiella pneumoniae [34]) was 245 mg/kg and the ED50 (Escherichia coli [35]) was 13 mg/kg.
